The source of these data is ChEMBL document CHEMBL3886363, “Phenyl-tetrahydroisoquinoline derivatives” (2015).

Several values for one entry are separate records, joined by “and”; a condition that tells them apart may be missing. Identical values can stand only once.

Data set [1] concerns the target T1, Cytochrome P450 11B2, mitochondrial (Homo sapiens, UniProt P19099).
T1 sequence (P19099 whole entry): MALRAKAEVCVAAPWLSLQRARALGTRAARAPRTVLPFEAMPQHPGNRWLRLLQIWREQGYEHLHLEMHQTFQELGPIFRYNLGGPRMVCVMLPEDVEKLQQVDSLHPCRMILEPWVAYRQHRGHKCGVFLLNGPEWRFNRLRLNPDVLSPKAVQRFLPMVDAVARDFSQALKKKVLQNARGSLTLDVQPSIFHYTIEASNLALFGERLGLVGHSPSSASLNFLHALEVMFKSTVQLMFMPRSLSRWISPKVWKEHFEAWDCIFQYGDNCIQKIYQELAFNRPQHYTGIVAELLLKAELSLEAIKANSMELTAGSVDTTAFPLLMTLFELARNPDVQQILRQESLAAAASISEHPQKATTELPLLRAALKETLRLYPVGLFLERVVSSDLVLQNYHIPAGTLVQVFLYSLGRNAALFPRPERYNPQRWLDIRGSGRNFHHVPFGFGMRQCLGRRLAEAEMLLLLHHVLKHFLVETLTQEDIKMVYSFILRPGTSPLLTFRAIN
As to the kind of experiment: (§1) Cellular Enzyme Assay: G-402 cells expressing CYP11 constructs were established as described above and maintained in McCoy's 5a Medium Modified, ATCC Catalog No. 30-2007 containing 10% FCS and 400 ug/ml G418 (Geneticin) at 37° C. under an atmosphere of 5% CO2/95% air. […] For assaying enzymatic activity, cells were plated onto 96 well plates and incubated for 16 h. An aliquot of the supernatant is then transferred and analyzed for the concentration of the expected product (Aldosterone for CYP11B2; Cortisol for CYP11B1). The concentrations of these steroids can be determined using HTRF assays from CisBio analyzing either Aldosterone or Cortisol. It counts as cell-based. (In TR-FRET formats the signal depends on donor and acceptor labels being close together.)

In data set [2] the target is T2, Cytochrome P450 11B1, mitochondrial (Homo sapiens, UniProt P15538).
T2 sequence (P15538 whole entry): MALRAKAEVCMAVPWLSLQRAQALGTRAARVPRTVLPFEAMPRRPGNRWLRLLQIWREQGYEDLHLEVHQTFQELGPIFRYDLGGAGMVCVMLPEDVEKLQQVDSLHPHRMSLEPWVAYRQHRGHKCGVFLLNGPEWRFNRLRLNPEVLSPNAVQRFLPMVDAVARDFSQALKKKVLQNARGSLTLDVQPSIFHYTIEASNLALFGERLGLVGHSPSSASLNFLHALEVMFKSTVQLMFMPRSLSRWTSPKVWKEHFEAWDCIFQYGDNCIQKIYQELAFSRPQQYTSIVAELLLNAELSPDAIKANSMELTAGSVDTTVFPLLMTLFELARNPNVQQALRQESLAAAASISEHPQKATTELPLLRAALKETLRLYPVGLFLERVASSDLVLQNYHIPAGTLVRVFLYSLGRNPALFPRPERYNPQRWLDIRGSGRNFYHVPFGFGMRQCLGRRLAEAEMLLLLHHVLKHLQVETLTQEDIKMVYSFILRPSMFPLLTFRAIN
Described as §1. It counts as cell-based.

For data set [3], the target named is T1, Cytochrome P450 11B2, mitochondrial. Described as §1.

What is called EC50 is the concentration giving half of the maximal effect. Read a high EC50 as a less potent agent. Take `CC1(C)Cc2c(-c3ccc(C(F)(F)F)cc3)cncc2C1O` (single isomer, unassigned): the EC50 in data set [1] is 30.4 nM; in data set [2], 2700 nM and 1640 nM; in data set [3], 15.2 nM.
Take `CC1(C)Cc2c(-c3ccc(C#N)cc3)cncc2C1O` (single isomer, unassigned): the EC50 in data set [3] was 2.2 nM and 12.1 nM.
Still for that read-out and setting: to `CCC(=O)NC1CCc2c(-c3ccc(F)c(C)c3)cncc21` (single isomer, unassigned; form 1) belongs 5770 nM.
On to `CC1(C)Cc2c(-c3ccc(C(F)(F)F)c(F)c3)cncc2C1O` (single isomer, unassigned), for which the EC50 in data set [1] was 3.1 nM; in data set [2] it was 304 nM and 792 nM; in data set [3], 30.3 nM.
